Consider three molecules from patent US6911435B1 (Can-Fite Biopharma Ltd., priority 1997, dated 2005).

The test system of one data set is B-16-F10 melanoma cells. As to the kind of experiment: Example 4 in vivo: B-16-F10 melanoma lung tumor foci. The conditions noted are these: for No. of foci (melanoma tumor foci in the lung): 18 days, adenosine 1 ml 5 mM daily i.p. On the set-up: species or system C57BL6/J mice.
Data set [1] deals with leukemia, lymphoma and the solid tumor cell lines. Kind of data set: [3H]-Thymidine incorporation assay, tumor cell lines. Format: cell-based, human, murine. The conditions noted are these: adenosine 4 μM, FIG. 2. The source says:
Tumor cell lines from human (K562 myeloid leukemia, Tib-180 erythroleukemia, LNCaP prostate carcinoma and MDA-MB468 breast adenocarcinoma), and murine (Yac lymphoma, B-16 melanoma) were used and were purchased from the American Type Tissue Culture Collection, Rockville. Nb2 11c rat lymphoma cells (Pines et al.^(19), were also used. The cells were routinely maintained in RPM medium containing 10% fetal calf serum. Twice a week the cells were transferred to a freshly prepared medium.
(§1) During the last 6 hours of incubation, each well was pulsed with 1 μCi[^3H]-Thymidine. The cells were harvested and the [^3H]-Thymidine uptake was determined in an LKB liquid scintillation counter (LKB, Piscataway, N.J., USA).
On the technique in general: Uptake of a labelled nucleoside into DNA is a usual measure of proliferation.

A further data set relates to blood cells. As to the kind of experiment: Example 3 in vivo: blood cell parameters after adenosine and/or chemotherapy. Particulars: for white blood cell count versus control: Example 3, in words. As for the experimental part:
40 C57BL6/J were divided into 4 groups, each of which was treated (by intraperitoneal injection) according to one of the following protocols: • 1. Control group: 6 days of treatment by daily injection of 1 ml saline. • 2. Chemotherapy group: daily injection of 1 ml saline for 5 consecutive days. On day 6 the mice were injected intraperitoneally with cyclophosphamide. • 3. […] On day 6 the mice were injected intraperitoneally with 1 ml saline. • 4.
The following parameters were evaluated for each group: • i. Red blood cell (RBC) count. • ii. Hemoglobin (HGB) level. • iii. White blood cell count. • iv. Proportion of the three major groups of white blood cells: Lymphocytes (LYM), Monocytes (MID) and Granulocytes (GRAN). Results

Another data set has as its system K562 cells. As to the kind of experiment: K562 cell proliferation with adenosine and theophylline. Format: cell-based, human. The procedure: as §1
Culture conditions were identical to those described above.

The subject of data set [2] is bone marrow cells. As to the kind of experiment: Example 2: proliferation capacity of bone marrow from treated mice ([3H]-Thymidine). Format: in vivo, C57BL6/J mice. Particulars: after 24 hours. As for the experimental part:
as §1
(§2) On day 6 the mice were injected intraperitoneally with 1 ml saline. • 4. chemotherapy group: daily injection of 1 ml saline for 5 consecutive days. On day 6 the mice were injected intraperitoneally with cyclophosphamide.
Five mice of each group were sacrificed […] and 96 hrs following the treatments and two parameters were evaluated: • 1. complete blood cell count. • 2. Proliferation capacity of bone marrow: bone marrow was aspirated from the femur and pooled for each tested group. The cells were separated, counted and the proliferative capacity was evaluated by the [^3H]-Thymidine incorporation assay as described above.

Data set [3] has as its system white blood cells. Kind of data set: Example 5 in vivo: white blood cell count and percentage of granulocytes. On the set-up: species or system C57BL6/J mice. As for the experimental part: 50 C57BL6/J mice were divided into 5 groups of 10 mice each, which were treated by intraperitoneal injection with one of the following treatments: • 1. Control group: 6 days of treatment by daily injection of 1 ml saline. • 2. […] Chemotherapy group: daily injection of 1 ml saline for 5 consecutive days. On day 6 the mice were injected intraperitoneally with cyclophosphamide. • 5. […] On day 6 the mice were injected intraperitoneally with cyclophosphamide. Results

Data set [4] relates to bone marrow cells. Kind of data set: Bone marrow cell proliferation in vitro (adenosine dose response, adenosine receptor antagonists). Format: cell-based, C57BL/6J mice. Particulars: FIG. 3. The procedure: as §1
In a further data set the test system is NK cells. Kind of data set: NK activity of splenocytes from adenosine treated mice, Yac targets. Format: in vivo, ICR mice. The conditions noted are these: 5 consecutive days 10 μM adenosine; two effector:target ratios; FIG. 8.
In data set [5] the test system is white blood cells. As to the kind of experiment: Example 2 in vivo: white blood cell count after adenosine and/or cyclophosphamide. On the set-up: species or system C57BL6/J mice. Particulars: i.p. The procedure: as §2
[…] Proliferation capacity of bone marrow: bone marrow was aspirated from the femur and pooled for each tested group. The cells were separated, counted and the proliferative capacity was evaluated by the [^3H]-Thymidine incorporation assay as described above.

Another data set has as its system Nb2-11C lymphoma cells. Kind of data set: Cell count assay, proliferation of Nb2-11C lymphoma cells. Format: cell-based, rat. Particulars: adenosine 1-20 μM, 48 hours. As for the experimental part: The Nb2-11C cells were synchronized in the GO/Gl phase prior to cultivation with the CM by transferring the cells to horse serum (Biological Industries, Beit Haemek, Israel) supplemented medium for overnight incubation. […] Cell proliferation was initiated by the addition of Human Growth Hormone (Biotechnology General, Rehovot, Israel) to a final concentration of 2 ng/ml. The cultures were incubated at 37° C. at 5% CO2 and counted in Coulter Counter 48 hours later.

Data set [6] deals with normal cells (bone marrow cells, fibroblasts, L-8 myoblast). Kind of data set: [3H]-Thymidine incorporation assay, normal cells. Particulars: adenosine 4 μM, FIG. 2. Format: cell-based, mice, rat. The procedure:
As a control for tumor proliferating cells, two normal proliferating cell types were used i.e., bone marrow cells derived from the femur of C57BL/6J mice; fibroblasts derived from primary cultures of newborn rat skeletal muscle cells. The cells were prepared as previously, (Djaldetti, M., Sredni, B., Zigelman, R., Verber, M., and Fishman, P. Muscle cells produce a low molecular weight factor with anti-cancer activity. Clin. Exp. Matastasis, 14:189-196, 1996). Also used was the L-8 myoblast rat cell line which was purchased from the ATCC.
as §1

Data set [7] has as its system human peripheral blood NK cells. As to the kind of experiment: NK activity of peripheral blood cells, 51Cr-release assay, K562 targets. Format: cell-based. The conditions noted are these: 4 μM adenosine, 18 hours preincubation. The procedure:
K562 cells were used as the targets (T) and were labeled with 100 μCi of Na2[^51Cr]O4 at 37° for 1 h. After extensive washing to remove the excess Cr, cells (1×10^4) were resuspended and mixed with the effector cells at the E:T ratio of […] in a volume of 200 μl using triplicate assays. After 4 h of incubation at 37° C. in 5% CO2, plates were centrifuged, and the supernatants were counted in a gamma counter (LKB). […] Spontaneous release was below 8% of the maximal release throughout this experiment.

The subject of another data set is IL-12. As to the kind of experiment: IL-12 production by peripheral blood mononuclear cells. Format: cell-based, human. The conditions noted are these: 4 μM adenosine. The procedure: Mononuclear cells (MNC) were fractionated from heparinized blood of 10 healthy volunteers using Ficoll-Hypaque gradient. […] At the end of the incubation period the supernatant was collected, centrifuged and filtered through 0.22μ sterile filter and kept at −70° C. until assayed. The level of IL-12 in the supernatants was analyzed using a commercial kit of R&D System.

[8] abbreviates: 5 μM adenosine group, daily i.p. 6 days.
The mark [9] stands for this setting: adenosine where given 10 μM, cyclophosphamide where given on day 6.

In the case of `Nc1ncnc2c1ncn2[C@@H]1O[C@H](CO)[C@@H](O)[C@H]1O` [adenosine], in the data set with B-16-F10 melanoma cells, the “No. of foci (melanoma tumor foci in the lung)” value is given as 6.11 ± 2.74. The “tumor load (tumor foci in the lungs)” value in the data set with B-16-F10 melanoma cells (oral 0.5 ml of 10 μM adenosine, about 54 μg/kg, with chemotherapeutic drug, FIG. 6) is listed as “synergized with the chemotherapeutic drug to reduce the tumor load”. The “proliferation of leukemia, lymphoma and solid tumor cell lines” value in [1] is “induced proliferation inhibition”. In addition, in the data set on blood cells, the “white blood cell count versus control” value is listed as “boosted to levels above control”. Moreover, in the data set on blood cells (mean±S.E.), the “% GRAN (granulocytes, % out of the number of white blood cells)” value was 21.03 ± 2.75%; the “% LYM (lymphocytes, % out of the number of white blood cells)” value amounted to 65.57 ± 3.35%; the “% MID (monocytes, % out of the number of white blood cells)” value came out at 13.4 ± 0.70%. Besides, the “HGB (hemoglobin count)” value with blood cells (mouse, in vivo) amounted to 14.03 ± 0.20 gram/100 ml. Moreover, the “K562 tumor cell proliferation” value in the data set with K562 cells (adenosine 4 μM, FIG. 4) was “inhibited tumor cell proliferation”. In the data set on bone marrow cells [2], the “Bone Marrow Cell Proliferation” value was 1480.0 ± 68.5 CPM. In the data set on white blood cells [3] (setting [8]), this molecule gave a GRAN of 9.00% and a WBC of 9.50 count × 10^3/I. Further, in the data set on white blood cells [3] (setting [9]), the GRAN is 10.76% and the WBC amounted to 7.56 count × 10^3/I. Besides, the “concentration of peak stimulatory activity on bone marrow cell proliferation” value with bone marrow cells [4] is given as “about 10 μM”. For the same molecule, the “NK activity of splenocytes, lysis of Yac target cells” value with NK cells is on record as “more potent in lysing the Yac target cells”. The WBC count with white blood cells [5] (24 hours after treatment) was 9.37 ± 0.26 × 10^6/ml. In the data set with white blood cells [5] (96 hours after treatment), the WBC count is 6.8 ± 0.73 × 10^6/ml. Further, in the data set with Nb2-11C lymphoma cells, the “growth of Nb2-11c rat lymphoma cells (cell count)” value is given as “markedly inhibited”. The “proliferation of the three tested normal cells” value in data set [6] is given as “stimulated the proliferation”. Besides, the “stimulation of NK activity” value in data set [7] turned out to be 32%. The “production of IL-12 in the presence of SAC mitogen” value in the data set with IL-12 (18 hours, FIG. 7) is recorded as “stimulated the production of IL-12”. Further, the “stimulation of IL-12 production without mitogen” value in the data set with IL-12 (no mitogen) is 19%.

For the molecule `O=P1(N(CCCl)CCCl)NCCCO1` (centres unmarked) [cyclophosphamide], the “No. of foci (melanoma tumor foci in the lung)” value with B-16-F10 melanoma cells stood at 4.16 ± 1.42. For the same molecule, in the data set on blood cells, the “white blood cell count versus control” value is on record as “caused a reduction in the amount of white blood cells”. In addition, in the data set with blood cells (mean±S.E.), the “% GRAN (granulocytes, % out of the number of white blood cells)” value is 10.28 ± 1.59%; the “% LYM (lymphocytes, % out of the number of white blood cells)” value is given as 81.94 ± 2.49%; the “% MID (monocytes, % out of the number of white blood cells)” value is reported as 7.78 ± 0.92%; the “HGB (hemoglobin count)” value amounted to 14.88 ± 8.32 gram/100 ml. For the same molecule, the “Bone Marrow Cell Proliferation” value with bone marrow cells [2] is 434.5 ± 52.2 CPM. In addition, in the data set with white blood cells [3] (setting [9]), the GRAN is on record as 7.70% and the WBC stood at 5.00 count × 10^3/I. In the data set with white blood cells [5] (24 hours after treatment), the WBC count was 3.8 ± 0.18 × 10^6/ml. In the data set on white blood cells [5] (96 hours after treatment), the WBC count is 3.62 ± 0.17 × 10^6/ml.

`Cn1c(=O)c2[nH]cnc2n(C)c1=O` [theophylline, Theophylline]: in the data set on K562 cells (theophylline 0.1 μM with 4 μM adenosine, K562), the “effect on the inhibitory effect of adenosine on tumor cell proliferation” value is on record as “this inhibitory effect was neutralized”.
